From patent publication US20230399378A1, “PEPTIDE-BASED DELIVERY OF AGENTS” (THE FLOREY INSTITUTE OF NEUROSCIENCE AND MENTAL HEALTH, priority 2020, published 2023)
Square brackets hold non-standard residues; d marks the D form. Side chains are listed from the residue outwards. Peptide text beside a SMILES is read from it. * marks the point of attachment. Myristoyl = CCCCCCCCCCCCCC(=O)*; PMO = not defined here; AEEA = NCCOCCOCC(=O)O; Ahx = NCCCCCC(=O)O; Mpa = O=C(O)CCS

How the values were obtained:
[1] = tested on: fibroblasts; experiment: Viability of fibroblasts by MTS assay (cytotoxicity); type: cell-based, human
Description: FIG. 5. Effect of the endosomal escape domain HA2 and lipidation of peptide-PMO conjugates on the viability of fibroblasts determined using MTS assay. UT, untreated control.
The peptide-PMO conjugates were tested up to 10 μM which is 10-fold greater than the concentration needed to achieve a high level of activity.

[2] = tested on: SMN2; experiment: SMN2 splice-switching for exon 7 inclusion by RT-qPCR in SMA Type I patient-derived fibroblasts (Example 2); type: cell-based, human; details: 0.5 μM and 1 μM
From the text: FIG. 3. (A) SMN2 pre-mRNA exon-7 skipping and production of 80-90% SMN2Δ7 mRNA transcripts. Peptide-PMO binding to Intron-splicing silencer (ISS-N1) and restoration of SMN2 splicing and production of full-length SMN2 mRNA transcripts. The positions of forward and reverse primers highlighted on full-length mRNA. (B)-(C) Effect of administration of peptides linked to PMO for SMN2 exon 7 inclusion, measured as change in the level of full length SMN2/HPRT1 in SMA patient-derived fibroblasts, each at two concentrations, 0.5 μM and 1 μM (or 1 μM and 5 μM in the case of PMO alone). UT, untreated. (B) For PMO constructs, from left to right: PMO; ApoE(141-150)-PMO; ApoE(133-150)-PMO. (C) For PMO constructs, from left to right: PMO; HA2-PMO; GALA-PMO; NLS-PMO; ApoE(141-150)-PMO; HA2-ApoE(141-150)-PMO; GALA-ApoE(141-150)-PMO; NLS-ApoE(141-150)-PMO; H4-ApoE(141-150)-PMO; A4-ApoE(141-150)-PMO. *P<0.05,**P<0.001, ***P<0.0001 cf. Untreated (control) and PMO (1 and 5 μM); #P<0.001 cf. GALA-/NLS-/H4-ApoE(141-150)-PMO (1 μM), ^<0.001 cf. ApoE(133-150)-PMO (0.5 and 1 μM), ^OP<0.001 cf. ApoE(141-150)-PMO (1 μM), ^&P<0.05 cf.
The inventors then evaluated cellular uptake and activity of these peptide-PMO conjugates in SMA Type I patient-derived fibroblasts with two copies of SMN2. Efficiency of uptake was assessed by RT-qPCR using SMN2 splice-switching for exon 7 inclusion (see FIG. 3A).
SMA Type I patient-derived fibroblasts (SMN2^+/+, GM03813, Coriell Cell Repositories) were maintained in Dulbecco's Modified Eagle's Medium (DMEM), supplemented with 10% foetal bovine serum (FBS), 1% Penicillin/Streptomycin and 1% L-glutamine (L-glu) at 37° C. Cells were plated in 6-well plates at a density of 3×10^5/well in 6 well plates one day prior to treatment with PMO and peptide-PMO conjugates. Cells used were from passage 8-22. PMO and the peptide-PMO conjugates were dissolved in nuclease-free water and diluted to appropriate concentrations in Opti-MEM reduced serum medium. Cells were treated for 4 hrs at 37° C. The transfection medium was then removed and replaced with growth medium in which the cells were incubated for 20 hrs.
Cells were washed with PBS and total cellular RNA was extracted using Trizol (TRI Reagent®, Sigma) according to the manufacturer's instructions (Life Technologies). 400 ng purified RNA was reverse transcribed into cDNA using BioRad iScript Reverse Transcription Supermix kit according to the manufacturer's instructions. The reverse transcription was performed using the Veriti Thermal Cycler (ThermoFisher Scientific) with the thermal cycling conditions: 25° C. for 5 min, 46° C. for 20 min, 95° C. for 1 min followed by a 4° C. holding period.
Quantitative PCR (20 ng cDNA/well) was carried out in a 96-well plate in triplicate using SsoAdvanced Universal SYBR Green Supermix on a Biorad CFX96 Touch™ Real-Time PCR detection system. The amplification was carried out using full-length SMN2-specific primers: Ex-6 Forward 5′-[…]-3′ (SEQ ID NO:10) and Ex7-8 reverse 5′[…]-3′ (SEQ ID NO:11). Human HPRT1 was used as the internal reference gene with forward primer sequence 5′-[…]-3′ (SEQ ID NO:12) and reverse primer sequence 5′-[…]-3′ (SEQ ID NO:13). The ΔΔCt method was used to correct the Ct values against the HPRT1 Ct values. The values obtained were normalised to the untreated control values which were set to 1. Statistical analysis was carried out using one-way ANOVA with post-hoc Bonferroni for multiple groups comparison (GraphPad Prism V.8, 2018). All data are expressed as mean±SEM from at least three independent experiments with p<0.05 considered significant.

[3] = tested on: SMA patient-derived fibroblasts; experiment: Confocal fluorescence uptake of Cy5-labelled peptide-PMO conjugates in SMA fibroblasts; type: cell-based, human; details: 1 μM; for intracellular fluorescence pattern: 1 hr at 37° C.
Description: FIG. 4. Representative confocal fluorescence microscopy images of SMA patient-derived fibroblasts treated with 1 μM of Cy5-labelled: (A) ApoE(141-150)-PMO; (B) HA2-ApoE(141-150)-PMO; (C) ApoE(133-150)-PMO; and (D) HA2-ApoE(133-150)-PMO, for 1 hr at 37° C.
SMA fibroblasts (6.0×10^4 cells/well) were plated onto a p-Slide 4 Well Ph+ Glass Bottom chamber slides precoated with poly-L-ornithine (Ibidi GmbH). After 24 hr, cells were incubated for 1 hr with Cy5-labelled peptide-PMO conjugates (1 μM or 5 μM) diluted in serum free Opti-MEM. At 10 min to end of 1 hr incubation, Hoechst (1:1000 dilution) was added to each well.

[4] = Serum stability in 50% human serum at 37 °C (RP-HPLC, one-phase decay half-life); details: for half-life at 500 µM: human, serum (50% human serum)
Description: Serum stability analysis was conducted for each peptide (7×50 nmol) shown in Table 3 in 50% human serum (100 μL) at 37° C. At the end of each time point (0, 10, 30, 60, 120, 240, and 480 min), 1 M guanidine hydrochloride solution (200 μL) and ice-cold acetonitrile (600 μL) were added, and the serum-peptide solution was centrifuged at 14000 g for 10 min. The supernatant was lyophilised and redissolved in water (200 μL). All samples were analysed by RP-HPLC in the presence of phenol (50 nmol) as an internal standard, using water and acetonitrile containing 0.1% TFA, with a gradient of 10-80% acetonitrile over 30 min, and a flow rate of 1.5 mL/min. The percentage of peptide remaining was measured based on the area under curve. The percentage of peptide remaining versus time data was fitted to a non-linear one-phase exponential decay model in GraphPad Prism 9.2.0 to determine the half-life for each peptide.

## Myr-GLFHAIAHFIHGGWH-X-LRVRLASHLRKLRKRLLR-X-C-PMO [Myr-HA2-ApoE(133-150)-PMO]
[1]; at 10 μM
  effect on cell viability: decrease in cell viability
[1]; up to 5 μM
  effect on cell viability: None of the P-PMO conjugates had a significant effect on cell viability

## Myr-GLFHAIAHFIHGGWH-X-LRKLRKRLLR-X-C-PMO ({Myristoyl-Gly-Leu-Phe-H2N-Ala-Ile-Ala-H2N-Phe-Ile-H2N-Gly-Gly-Trp-H2N-Ahx}-LRKLRKRLLR[Ahx]C-{PMO}; reading uncertain; also: printed as Myr-GLFHAIAHFIHGGWH-X-LRKLRKRLLR-X-C-PMO; UniProt P02649 159-168, looked up, fragment) [Myr-HA2-ApoE(141-150)-PMO]
[1]; at 10 μM
  effect on cell viability: decrease in cell viability
[1]; up to 5 μM
  effect on cell viability: None of the P-PMO conjugates had a significant effect on cell viability

## Ac-LRKLRKRLLR-X-C-PMO [ApoE(141-150)-PMO]
[2]; FIG. 3B/3C
  exon-7 inclusion activity, dependence on concentration: concentration-dependent increase in activity
[3]
  intracellular fluorescence pattern: punctate intracellular fluorescence pattern

## CC(C)C[C@@H](NC(=O)[C@@H](CCCNC(=N)N)NC(=O)[C@H](NC(=O)[C@@H](CCCNC(=N)N)NC(=O)[C@@H](CC(C)C)NC(=O)[C@@H](C)NC(=O)[C@@H](CO)NC(=O)[C@@H](Cc1c[nH]cn1)NC(=O)[C@@H](CC(C)C)NC(=O)[C@@H](CCCNC(=N)N)NC(=O)[C@@H](CCCCN)NC(=O)[C@@H](CC(C)C)NC(=O)[C@@H](CCCNC(=N)N)NC(=O)[C@@H](CCCCN)NC(=O)[C@@H](CCCNC(=N)N)NC(=O)[C@@H](CC(C)C)NC(=O)[C@@H](CC(C)C)NC(=O)[C@@H](CCCNC(=N)N)NC(=O)COCCOCCNC(=O)CCS)C(C)C)C(=O)O [RI TPA-ApoE(133-150), TPA-mPEG-rllrkrlkrlhsalrvrl] ([Mpa][AEEA][dR][dL][dL][dR][dK][dR][dL][dK][dR][dL][dH][dS][dA][dL][dR][dV][dR][dL]-OH)
[4]; 50% human serum, 37° C.
  proteolytic stability compared to the parent L-peptides: significantly higher proteolytic stability
[4]
  half-life at 500 µM: 672 min

## CC[C@H](C)[C@H](NC(=O)[C@H](C)NC(=O)[C@H](Cc1c[nH]cn1)NC(=O)[C@H](Cc1ccccc1)NC(=O)[C@H](CC(C)C)NC(=O)CNC(C)=O)C(=O)N[C@@H](C)C(=O)N[C@@H](Cc1c[nH]cn1)C(=O)N[C@@H](Cc1ccccc1)C(=O)N[C@H](C(=O)N[C@@H](Cc1c[nH]cn1)C(=O)NCC(=O)NCC(=O)N[C@@H](Cc1c[nH]c2ccccc12)C(=O)N[C@@H](Cc1c[nH]cn1)C(=O)NCCOCCOCC(=O)N[C@@H](CCCCNC(=O)COCCOCCNC(=O)CCS)C(=O)NCCOCCOCC(=O)N[C@@H](CC(C)C)C(=O)N[C@@H](CCCNC(=N)N)C(=O)N[C@H](C(=O)N[C@@H](CCCNC(=N)N)C(=O)N[C@@H](CC(C)C)C(=O)N[C@@H](C)C(=O)N[C@@H](CO)C(=O)N[C@@H](Cc1c[nH]cn1)C(=O)N[C@@H](CC(C)C)C(=O)N[C@@H](CCCNC(=N)N)C(=O)N[C@@H](CCCCN)C(=O)N[C@@H](CC(C)C)C(=O)N[C@@H](CCCNC(=N)N)C(=O)N[C@@H](CCCCN)C(=O)N[C@@H](CCCNC(=N)N)C(=O)N[C@@H](CC(C)C)C(=O)N[C@@H](CC(C)C)C(=O)N[C@@H](CCCNC(=N)N)C(=O)O)C(C)C)[C@@H](C)CC [Br-HA2-(TPA)-ApoE(133-150), Ac-GLFHAIAHFIHGGWH-mPEG-K(mPEG-TPA)-mPEG-LRVRLASHLRKLRKRLLR] (Ac-GLFHAIAHFIHGGWH[AEEA]K([AEEA-Mpa])[AEEA]LRVRLASHLRKLRKRLLR-OH)
[4]
  half-life at 500 µM: 60 min

## CC[C@@H](C)[C@@H](NC(=O)[C@@H](C)NC(=O)[C@@H](Cc1c[nH]cn1)NC(=O)[C@@H](Cc1ccccc1)NC(=O)[C@H](NC(=O)[C@@H](Cc1c[nH]cn1)NC(=O)CNC(=O)CNC(=O)[C@@H](Cc1c[nH]c2ccccc12)NC(=O)[C@@H](Cc1c[nH]cn1)NC(C)=O)[C@H](C)CC)C(=O)N[C@H](C)C(=O)N[C@H](Cc1c[nH]cn1)C(=O)N[C@H](Cc1ccccc1)C(=O)N[C@H](CC(C)C)C(=O)NCC(=O)NCCOCCOCC(=O)N[C@@H](CCCCNC(=O)COCCOCCNC(=O)CCS)C(=O)NCCOCCOCC(=O)N[C@H](CCCNC(=N)N)C(=O)N[C@H](CC(C)C)C(=O)N[C@H](CC(C)C)C(=O)N[C@H](CCCNC(=N)N)C(=O)N[C@H](CCCCN)C(=O)N[C@H](CCCNC(=N)N)C(=O)N[C@H](CC(C)C)C(=O)N[C@H](CCCCN)C(=O)N[C@H](CCCNC(=N)N)C(=O)N[C@H](CC(C)C)C(=O)O [RI Br-HA2-(TPA)-ApoE(141-150), Ac-hwgghifhaiahflg-mPEG-K(mPEG-TPA)-mPEG-rllrkrlkrl] (Ac-[dH][dW]GG[dH][dI][dF][dH][dA][dI][dA][dH][dF][dL]G[AEEA]K([AEEA-Mpa])[AEEA][dR][dL][dL][dR][dK][dR][dL][dK][dR][dL]-OH)
[4]
  half-life at 500 µM: 18 min

## CC[C@H](C)[C@H](NC(=O)[C@H](C)NC(=O)[C@H](Cc1c[nH]cn1)NC(=O)[C@H](Cc1ccccc1)NC(=O)[C@H](CC(C)C)NC(=O)CNC(C)=O)C(=O)N[C@@H](C)C(=O)N[C@@H](Cc1c[nH]cn1)C(=O)N[C@@H](Cc1ccccc1)C(=O)N[C@H](C(=O)N[C@@H](Cc1c[nH]cn1)C(=O)NCC(=O)NCC(=O)N[C@@H](Cc1c[nH]c2ccccc12)C(=O)N[C@@H](Cc1c[nH]cn1)C(=O)NCCOCCOCC(=O)N[C@@H](CCCCNC(=O)COCCOCCNC(=O)CCS)C(=O)NCCOCCOCC(=O)N[C@@H](CC(C)C)C(=O)N[C@@H](CCCNC(=N)N)C(=O)N[C@@H](CCCCN)C(=O)N[C@@H](CC(C)C)C(=O)N[C@@H](CCCNC(=N)N)C(=O)N[C@@H](CCCCN)C(=O)N[C@@H](CCCNC(=N)N)C(=O)N[C@@H](CC(C)C)C(=O)N[C@@H](CC(C)C)C(=O)N[C@@H](CCCNC(=N)N)C(=O)O)[C@@H](C)CC [Br-HA2-(TPA)-ApoE(141-150), Ac-GLFHAIAHFIHGGWH-mPEG-K(mPEG-TPA)-mPEG-LRKLRKRLLR] (Ac-GLFHAIAHFIHGGWH[AEEA]K([AEEA-Mpa])[AEEA]LRKLRKRLLR-OH)
[4]
  half-life at 500 µM: 36 min

## Ac-GLFHAIAHFIHGGWH-X-LRKLRKRLLR-X-C-PMO [HA2-ApoE(141-150)-PMO]
[1]; at 10 μM
  effect on cell viability: decrease in cell viability
[1]; up to 5 μM
  effect on cell viability: None of the P-PMO conjugates had a significant effect on cell viability
[2]; versus comparator
  exon-7 inclusion activity, change in words: significant increase in the activity
[3]
  intracellular fluorescence pattern: higher fluorescence intensity with a more diffused pattern
[3]; 1 hr, versus counterparts without HA2
  cellular uptake on addition of endosomal escape domain HA2: significantly enhanced cellular uptake
